This note sets out measurements from patent US20230105212A1, “BIPHENYL DERIVATIVE INHIBITOR, PREPARATION METHOD THEREFOR AND USE THEREOF” (SHANGHAI HANSOH BIOMEDICAL CO., LTD., priority 2020, published 2023).

In experiment [1] the target is T1, PD-L1 protein on the surface of MC38-hPDL1 tumor cells (Homo sapiens, UniProt Q9NZQ7).
T1 construct: expressed in transfected cells; host or cells: MC38-hPDL1 (mouse colon cancer cells)
The experiment in a line: Induction of endocytosis of PD-L1 on the surface of tumor cells (flow cytometry). The format is cell-based. To be noted: 16 hours incubation; for Emax: MC38-hPDL1 cells, read-out: MC38 maximum endocytosis rate; for IC50: inducing endocytosis of PD-L1, MC38-hPDL1 cells, read-out: MC38 IC50. The method in brief: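 MC38-hPDL1 mouse colon cancer cells overexpressing human PD-L1 were exposed to compound dilutions for 16 h at 37 °C. Surface PD-L1 was then stained with PE anti-human CD274 for 30 min at room temperature and measured by flow cytometry. Endocytosis rate versus concentration was fitted by nonlinear regression to give IC50.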

Experiment [2] concerns the target T2, human PD-1/PD-L1 binding (Homo sapiens, UniProt Q9NZQ7).
T2 construct: PD-L1-His protein (19 to 238 amino acids) (Abcam #ab167713); purchased Abcam (PD-L1-His); R&D (PD-1-Fc) ab167713; 1086-PD
Nature of the experiment: Inhibition of human PD-1/PD-L1 binding (TR-FRET/HTRF). The conditions noted are these: TR-FRET, PD-L1-His and PD-1-Fc; read-out: PD-1/PD-L1 binding IC50. The method in brief: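 PD-L1-His (aa 19–238, diluted to 10 nM) and PD-1-Fc (aa 25–167, diluted to 20 nM) incubated with compounds (10 μM or 1 μM top, 3-fold, 11 doses) 60 min at room temperature, then anti-6HIS Eu cryptate/anti-human IgG-XL665 added for 3 h RT or overnight 4 °C. HTRF 665/620 nm ratio gave inhibition and IC50.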

The target in experiment [3] is T3, human PD-L1 protein (Homo sapiens, UniProt Q9NZQ7).
T3 construct: purchased Acro Biosystems PD1-H5229
The experiment in a line: Thermal shift: melting temperature of PD-L1 protein. The format is binding. To be noted: read-out: ΔTm (° C.). As to the method: Test Embodiment 4. Test of Combination of the Compounds of the Present Disclosure to Improve the Stability (Melting Temperature) of PD-L1 Protein Experimental purpose: To test the ability of compounds to enhance the stability of PD-L1 protein and increase the melting temperature of the protein. Experimental method: […] A solution containing […] HEPES, SYPRO Orange, and 150 mM NaCl was prepared as experimental buffer, and human PD-L1 protein was added at a final concentration of 2 μM. […] PCR tube was put into the PCR machine, and the melt curve function was selected to detect the melting temperature of PD-L1 protein in different treatment groups (heated from 25° C. to 95° C., 0.03° C./s). The experimental data file of the PCR instrument was imported into the thermal shift software to obtain the melting temperature (Tm) of each treatment group, and the Tm of the DMSO vehicle control group was subtracted to obtain the change value (ΔTm) of the melting temperature, as shown in the following table: […]

Setting [4] is: compound 10 μM, PD-L1 protein 2 μM, Tm minus DMSO vehicle control.

Each structure is given as a SMILES string. Like-named read-outs stand apart in the source and are kept apart here.

T1 sequence (Q9NZQ7 19-290): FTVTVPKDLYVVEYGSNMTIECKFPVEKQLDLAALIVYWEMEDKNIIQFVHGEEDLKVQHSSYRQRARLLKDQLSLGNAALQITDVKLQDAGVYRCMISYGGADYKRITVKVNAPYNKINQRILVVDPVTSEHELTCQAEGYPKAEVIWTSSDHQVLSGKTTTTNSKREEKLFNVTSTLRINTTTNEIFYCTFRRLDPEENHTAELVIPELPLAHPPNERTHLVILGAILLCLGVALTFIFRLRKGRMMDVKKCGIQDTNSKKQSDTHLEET
T3 sequence (Q9NZQ7 19-238 limits assumed): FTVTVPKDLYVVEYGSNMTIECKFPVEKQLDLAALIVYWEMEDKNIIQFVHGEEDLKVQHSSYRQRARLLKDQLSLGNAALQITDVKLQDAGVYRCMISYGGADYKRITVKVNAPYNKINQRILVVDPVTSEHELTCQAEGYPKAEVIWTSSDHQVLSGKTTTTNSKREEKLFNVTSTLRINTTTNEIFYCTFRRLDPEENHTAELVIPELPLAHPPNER
T2 sequence (Q9NZQ7 19-238): as the sequence (Q9NZQ7 19-238 limits assumed) above

Take `COc1nc(-c2cccc(-c3cccc(NC(=O)c4nc5c(n4C)CCN(C)C5)c3Cl)c2Cl)ncc1CN[C@H]1CCOC[C@@H]1O` (relative stereo) [Embodiment 228, N-(2,2′-Dichloro-3′-(5-(((trans-3-hydroxytetrahydro-2H-pyran-4-yl)amino)methyl)-4-methoxypyrimidin-2-yl)-[1,1′-biphenyl]-3-yl)-1,5-dimethyl-4,5,6,7-tetrahydro-1H-imidazo[4,5-c]pyridine-2-carboxamide]: the Emax in experiment [1] stood at 95%. For the same compound, the IC50 in experiment [2] amounted to 4.2 nM. Also, in experiment [3] (setting [4]), the ΔTm (commonly the change in melting temperature against a reference sample) at 10 µM came to 11.6 °C.

`CCn1c(C(=O)Nc2cccc(-c3cccc(-c4ccc(CN[C@H]5CCOC[C@@H]5O)c(OC)n4)c3Cl)c2Cl)nc2c1CCN(C)C2` (relative stereo) [Embodiment 235, N-(2,2′-Dichloro-3′-(5-(((trans-3-hydroxytetrahydro-2H-pyran-4-yl)amino)methyl)-6-methoxypyridin-2-yl)-[1,1′-biphenyl]-3-yl)-1-ethyl-5-methyl-4,5,6,7-tetrahydro-1H-imidazo[4,5-c]pyridine-2-carboxamide]: the Emax in experiment [1] is 93%. Besides, the IC50 in experiment [2] worked out at 6.4 nM. The ΔTm at 10 µM in experiment [3] (setting [4]) came to 11.3 °C.

With `COc1cc(C(=O)Nc2cccc(-c3cccc(NC(=O)c4nc5c(n4C)CCN(C)C5)c3Cl)c2C)ncc1CN[C@@H]1CONC1=O` [Embodiment 96, (R)—N-(2-Chloro-3′-(4-methoxy-5-(((3-carbonylisoxazolidin-4-yl)amino)methyl)picolinamido)-2′-methyl-[1,1′-biphenyl]-3-yl)-1,5-dimethyl-4,5,6,7-tetrahydro-1H-imidazo[4,5-c]pyridine-2-carboxamide], the IC50 in experiment [2] was 2.3 nM. In addition, the ΔTm at 10 µM in experiment [3] (setting [4]) was 10.5 °C.

As to `COc1nc(-c2cccc(-c3cccc(NC(=O)c4nc5c(n4C)CCN(C)C5)c3Cl)c2Cl)ccc1CN1CC(OC(C)=O)C1` [Embodiment 122, 1-((6-(2,2′-Dichloro-3′-(1,5-dimethyl-4,5,6,7-tetrahydro-1H-imidazo[4,5-c]pyridine-2-carboxamido)-[1,1′-biphenyl]-3-yl)-2-methoxypyridin-3-yl)methyl)azetidin-3-yl acetate], in experiment [1], the Emax amounted to 97% and the IC50 stood at 0.4 nM. In addition, the IC50 in experiment [2] amounted to 3.5 nM. Moreover, the ΔTm at 10 µM in experiment [3] (setting [4]) was 14.8 °C.

For `COc1nc(-c2cccc(-c3cccc(NC(=O)c4nc5c(n4C)CCN(C)C5)c3Cl)c2Cl)ccc1CN1CC2(CCCO2)C1` [Embodiment 125, N-(3′-(5-((5-Oxa-2-azaspiro[3.4]octan-2-yl)methyl)-6-methoxypyridin-2-yl)-2,2′-dichloro-[1,1′-biphenyl]-3-yl)-1,5-dimethyl-4,5,6,7-tetrahydro-1H-imidazo[4,5-c]pyridine-2-carboxamide], in experiment [1], the Emax came out at 96% and the IC50 came out at 0.7 nM. For the same compound, the IC50 in experiment [2] is 8.4 nM. For the same compound, the ΔTm at 10 µM in experiment [3] stood at 15.6 °C.

As to `COc1nc(-c2cccc(-c3cccc(NC(=O)c4nc5c(n4C)CCN(C)C5)c3Cl)c2Cl)ccc1CNC[C@@H](C)O` [Embodiment 128, (R)—N-(2,2′-Dichloro-3′-(5-(((2-hydroxypropyl)amino)methyl)-6-methoxypyridin-2-yl)-[1,1′-biphenyl]-3-yl)-1,5-dimethyl-4,5,6,7-tetrahydro-1H-imidazo[4,5-c]pyridine-2-carboxamide], in experiment [1], the Emax amounted to 98% and the IC50 turned out to be 0.6 nM. Moreover, the IC50 in experiment [2] turned out to be 6.5 nM. Also, the thermal shift (ΔTm) at 10 µM in experiment [3] (setting [4]) came out at 16.8 °C.

As to `COc1nc(-c2cccc(-c3cccc(NC(=O)c4nc5c(n4C)CCN(C)C5)c3Cl)c2Cl)ccc1CN1CC(O)C1` [Embodiment 129, N-(2,2′-Dichloro-3′-(5-((3-hydroxyazetidin-1-yl)methyl)-6-methoxypyridin-2-yl)-[1,1′-biphenyl]-3-yl)-1,5-dimethyl-4,5,6,7-tetrahydro-1H-imidazo[4,5-c]pyridine-2-carboxamide], the Emax in experiment [1] was found to be 95%. Further, the IC50 turned out to be 1 nM in experiment [1] and 2.9 nM in experiment [2]. The shift in melting temperature (ΔTm) at 10 µM in experiment [3] is 13.9 °C.

Turning to `COc1nc(-c2cccc(-c3cccc(NC(=O)c4nc5c(n4C)CCN(C)C5)c3Cl)c2Cl)ccc1CN1CC(C)(O)C1` [Embodiment 130, N-(2,2′-Dichloro-3′-(5-((3-hydroxy-3-methylazetidin-1-yl)methyl)-6-methoxypyridin-2-yl)-[1,1′-biphenyl]-3-yl)-1,5-dimethyl-4,5,6,7-tetrahydro-1H-imidazo[4,5-c]pyridine-2-carboxamide], in experiment [1], the Emax came out at 97% and the IC50 was 1.2 nM. Further, the IC50 in experiment [2] is 4.8 nM. Besides, in experiment [3], the ΔTm at 10 µM came out at 18.1 °C.

As for `COc1nc(-c2cccc(-c3cccc(NC(=O)c4nc5c(n4C)CCN(C)C5)c3Cl)c2Cl)ccc1CN1CC(C(=O)O)C1` [Embodiment 135, 1-((6-(2,2′-Dichloro-3′-(1,5-dimethyl-4,5,6,7-tetrahydro-1H-imidazo[4,5-c]pyridine-2-carboxamido)-[1,1′-biphenyl]-3-yl)-2-methoxypyridin-3-yl)methyl)azetidine-3-carboxylic Acid], in experiment [1], the Emax stood at 98% and the IC50 stood at 3.1 nM. In addition, the IC50 in experiment [2] came out at 1.2 nM. In experiment [3] (setting [4]), the ΔTm at 10 µM came out at 16.7 °C.

In the case of `COc1nc(-c2cccc(-c3cccc(NC(=O)c4nc5c(n4C)CCN(C)C5)c3Cl)c2Cl)ccc1CNCC(=O)O` [Embodiment 138, ((6-(2,2′-Dichloro-3′-(1,5-dimethyl-4,5,6,7-tetrahydro-1H-imidazo[4,5-c]pyridine-2-carboxamido)-[1,1′-biphenyl]-3-yl)-2-methoxypyridin-3-yl)methyl)glycine], in experiment [1], the Emax is 97% and the IC50 is 4.5 nM. Further, the IC50 in experiment [2] came to 0.8 nM. Further, the ΔTm at 10 µM in experiment [3] (setting [4]) came out at 14 °C.

Turning to `COc1cc(-c2cccc(-c3cccc(NC(=O)c4nc5c(n4C)CCN(C)C5)c3Cl)c2Cl)ccc1CNCCO` [Embodiment 157, N-(2,2′-Dichloro-4″-(((2-hydroxyethyl)amino)methyl)-3″-methoxy-[1,1′:3′,1″-terphenyl]-3-yl)-1,5-dimethyl-4,5,6,7-tetrahydro-1H-imidazo[4,5-c]pyridine-2-carboxamide], the Emax in experiment [1] was found to be 95%. For the same compound, the IC50 in experiment [1] stood at 1.5 nM; in experiment [2] it was 4 nM. Besides, the ΔTm at 10 µM in experiment [3] (setting [4]) is 11.2 °C.

Consider `COc1cc(-c2cccc(-c3cccc(NC(=O)c4nc5c(n4C)CCN(C)C5)c3Cl)c2Cl)ccc1CNC[C@@H](C)O` [Embodiment 158, (R)—N-(2,2′-Dichloro-4″-(((2-hydroxypropyl)amino)methyl)-3″-methoxy-[1,1′:3′,1″-terphenyl]-3-yl)-1,5-dimethyl-4,5,6,7-tetrahydro-1H-imidazo[4,5-c]pyridine-2-carboxamide], for which, in experiment [1], the Emax was found to be 95% and the IC50 turned out to be 1.7 nM. Also, in experiment [2], the IC50 is 6.4 nM. For the same compound, in experiment [3] (setting [4]), the ΔTm at 10 µM worked out at 10.3 °C.

Consider `COc1nc(-c2cccc(-c3cccc(NC(=O)c4nc5c(n4C)CCN(C)C5)c3Cl)c2Cl)ccc1CN1CC[C@H]1C(=O)O` [Embodiment 171, (S)-1-((6-(2,2′-Dichloro-3′-(1,5-dimethyl-4,5,6,7-tetrahydro-1H-imidazo[4,5-c]pyridine-2-carboxamido)-[1,1′-biphenyl]-3-yl)-2-methoxypyridin-3-yl)methyl)azetidine-2-carboxylic acid], for which the Emax in experiment [1] was 93%. Also, the IC50 in experiment [2] was 0.9 nM. Also, the ΔTm at 10 µM in experiment [3] is 10.3 °C.

With `COc1nc(-c2cccc(-c3cccc(NC(=O)c4nc5c(n4C)CCN(C)C5)c3Cl)c2Cl)ccc1CN1CC[C@H]1CO` [Embodiment 172, (S)—N-(2,2′-Dichloro-3′-(5-((2-(hydroxymethyl)azetidin-1-yl)methyl)-6-methoxypyridin-2-yl)-[1,1′-biphenyl]-3-yl)-1,5-dimethyl-4,5,6,7-tetrahydro-1H-imidazo[4,5-c]pyridine-2-carboxamide], in experiment [1], the Emax amounted to 94%. For the same compound, in experiment [2], the IC50 stood at 6.3 nM. In addition, the ΔTm at 10 µM in experiment [3] was determined as 13.9 °C.

Consider `COc1nc(-c2cccc(-c3cccc(NC(=O)c4nc5c(n4C)CCN(C)C5)c3Cl)c2Cl)ccc1CNC1CN(C(C)=O)C1` [Embodiment 179, N-(3′-(5-(((1-Acetylazetidin-3-yl)amino)methyl)-6-methoxypyridin-2-yl)-2,2′-dichloro-[1,1′-biphenyl]-3-yl)-1,5-dimethyl-4,5,6,7-tetrahydro-1H-imidazo[4,5-c]pyridine-2-carboxamide], for which, in experiment [1], the Emax was found to be 96%. In experiment [2], the IC50 was found to be 7.9 nM. The ΔTm at 10 µM in experiment [3] (setting [4]) stood at 12.3 °C.
